Measurements from ChEMBL document CHEMBL5143537, “Quinazoline-based hydroxamic acid derivatives as dual histone methylation and deacetylation inhibitors for potential anticancer agents” (Bioorg Med Chem, 2022).
Activity calls are given as the source filed them. The calls are words filed in the database; no cut-off is given here.

Legend:
HT-29 = assay: Antiproliferative activity against human HT-29 cells measured after 72 hrs by MTT assay; type: functional, cell-based; conditions: HT-29, 72 h
HCT-116 = assay: Antiproliferative activity against human HCT-116 cells measured after 72 hrs by MTT assay; type: functional, cell-based; conditions: HCT-116, 72 h
HepG2 [1] = assay: Induction of apoptosis in human HepG2 cells assessed as increase in cleaved PARP expression at 1.25 to 20 uM measured after 48 hrs by Western blot analysis; type: functional, cell-based; conditions: dose 1.25-20 µM
HepG2 [2] = assay: Induction of apoptosis in human HepG2 cells assessed as increase in cleaved caspase-3 expression at 1.25 to 20 uM measured after 48 hrs by Western blot analysis; type: functional, cell-based; conditions: dose 1.25-20 µM
HepG2 [3] = assay: Induction of apoptosis in human HepG2 cells assessed as late apoptotic cells at 1.25 uM measured after 48 hrs by Annexin V-FITC/propidium iodide staining based flow cytometry (reference value: 4.55%); type: functional
HepG2 [4] = assay: Induction of apoptosis in human HepG2 cells assessed as necrotic cells at 2.5 uM measured after 48 hrs by Annexin V-FITC/propidium iodide staining based flow cytometry (reference value: 0%); type: functional
HepG2 [5] = assay: Induction of apoptosis in human HepG2 cells assessed as necrotic cells at 5 uM measured after 48 hrs by Annexin V-FITC/propidium iodide staining based flow cytometry (reference value: 0%); type: functional
HepG2 [6] = assay: Induction of apoptosis in human HepG2 cells assessed as necrotic cells at 10 uM measured after 48 hrs by Annexin V-FITC/propidium iodide staining based flow cytometry (reference value: 0%); type: functional
HepG2 [7] = assay: Induction of apoptosis in human HepG2 cells assessed as increase in cleaved caspase-9 expression at 1.25 to 20 uM measured after 48 hrs by Western blot analysis; type: functional, cell-based; conditions: dose 1.25-20 µM
HepG2 [8] = assay: Cell cycle arrest in human HepG2 cells assessed as accumulation at G0/G1 phase at 2.5 uM measured after 48 hrs by propidium iodide staining based flow cytometry (reference value: 55.24%); type: functional
HepG2 [9] = assay: Cell cycle arrest in human HepG2 cells assessed as accumulation at G2/M phase at 5 uM measured after 48 hrs by propidium iodide staining based flow cytometry (reference value: 12.37%); type: functional
HepG2 [10] = assay: Cell cycle arrest in human HepG2 cells assessed as accumulation at G2/M phase at 10 uM measured after 48 hrs by propidium iodide staining based flow cytometry (reference value: 12.37%); type: functional
HepG2 [11] = assay: Antiinvasive activity against human HepG2 cells at 20 uM measured after 24 hrs by trans-well assay; type: functional, cell-based; conditions: DDE = dose-dependent effect
[12] = Metabolic stability in rat liver microsomes assessed as parent compound remaining at 1 uM measured after 15 mins by LC-MS/MS analysis; type: ADME, Microsome; conditions: read-out: Stability
[13] = Intrinsic clearance in rat liver microsomes at 1 uM by LC-MS/MS analysis; type: ADME, Microsome; conditions: read-out: CLH

IC50 (HT-29): 6.99 µM
IC50 (HCT-116): 11.1 µM
remaining at 0.25 h, 1 µM [12]: 50.2%
CLint scaled at 1 µM [13]: 155 mL/min/kg
Structure (SMILES): COc1cc2nc(N3CCN(CCCCCC(=O)NO)CC3)nc(NC3CCN(Cc4ccccc4)CC3)c2cc1OC
Activity (HepG2 [1]): Active
Activity (HepG2 [2]): Active
Activity (HepG2 [3]): 2.68%
Activity (HepG2 [4]): 0%
Activity (HepG2 [5]): 0%
Activity (HepG2 [6]): 0%
Activity (HepG2 [7]): Active
Activity (HepG2 [8]): 57.88%
Activity (HepG2 [9]): 13.12%
Activity (HepG2 [10]): 15.52%
Activity (HepG2 [11]): Dde
